{"source": "patent US5310675A", "about": "“Procaryotic carbonyl hydrolases” (priority 1991, dated 1994)", "experiment_in_all_cases": "Kinetic parameters from progress curves, p-nitroanilide substrates", "assay_type_in_all_cases": "biochemical", "settings_in_all_cases": "25° C., 0.1M tris buffer, pH 8.6", "key": {"[1]": {"biological_target": "T1, B. amyloliquefaciens subtilisin variant asn+166 (glycine+166 to asn) (Bacillus amyloliquefaciens, UniProt P00782, G273N)", "T1 construct": "codons for the mature subtilisin corresponding to that secreted by the B. amyloliquefaciens; made in house; host or cells: B. subtilis BG2036", "T1 sequence (P00782 108-382 G273N)": "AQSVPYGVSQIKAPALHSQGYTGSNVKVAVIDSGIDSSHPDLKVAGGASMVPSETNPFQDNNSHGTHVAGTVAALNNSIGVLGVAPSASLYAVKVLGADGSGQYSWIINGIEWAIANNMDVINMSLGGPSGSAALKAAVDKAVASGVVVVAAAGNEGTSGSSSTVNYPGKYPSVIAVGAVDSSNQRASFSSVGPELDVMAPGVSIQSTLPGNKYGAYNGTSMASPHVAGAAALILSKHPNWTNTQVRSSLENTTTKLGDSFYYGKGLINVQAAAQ", "experimental": "(§1) B. subtilis strain BG2036 obtained by the method of Example 11 was transformed by the plasmids of Examples 14, 15 or 20 and by pS4-5 as a control. Transformants were plated or cultured in shaker flasks for 16 to 48 h at 37° C. in LB media plus 12.5 μg/ml chloramphenicol. Mutant enzymatically active subtilisin was recovered by dialyzing cell broth against 0.01M sodium phosphate buffer, pH 6.2. The dialyzed broth was then titrated to pH 6.2 with 1N HCl and loaded on a 2.5×2 cm column of CM Cellulose (CM-52 Whatman). After washing with 0.01M sodium phosphate, pH 6.2, the subtilisins (except mutants at position +222) were eluted with the same buffer made 0.08N in NaCl. The mutant subtilisins at position +222 were each eluted with 0.1M sodium phosphate, pH 7.0. The purified mutant and wild type enzymes were then used in studies of oxidation stability, Km, Kcat, Kcat/Km ratio, pH optimum, and changes in substrate specificity.\n(§2) Various mutants for glycine+166 were screened for modified Kcat, Km and Kcat/Km ratios. Kinetic parameters were obtained by analysis of the progress curves of the reactions. The rate of reaction was measured as a function of substrate concentration. Data was analyzed by fitting to the Michaelis-Menton equation using the non-linear regression algorithm of Marquardt (Marquardt, D. W. 1963, \"J. Soc. Ind. Appl. Math.\" 11, 431-41)."}, "[2]": {"biological_target": "T2, B. amyloliquefaciens subtilisin variant asp+166 (D166; glycine+166 to asp) (Bacillus amyloliquefaciens, UniProt P00782, G273D)", "T2 construct": "codons for the mature subtilisin corresponding to that secreted by the B. amyloliquefaciens; made in house; host or cells: B. subtilis BG2036", "T2 sequence (P00782 108-382 G273D)": "as the sequence (P00782 108-382 G273N) above, with N166D counted along it", "experimental": "as §1, §2"}, "[3]": {"biological_target": "T3, B. amyloliquefaciens subtilisin variant glu+166 (E166; glycine+166 to glu) (Bacillus amyloliquefaciens, UniProt P00782, G273E)", "T3 construct": "codons for the mature subtilisin corresponding to that secreted by the B. amyloliquefaciens; made in house; host or cells: B. subtilis BG2036", "T3 sequence (P00782 108-382 G273E)": "as the sequence (P00782 108-382 G273N) above, with N166E counted along it", "experimental": "as §1, §2"}, "[4]": {"biological_target": "T4, B. amyloliquefaciens subtilisin, wild type (gly-166) (Bacillus amyloliquefaciens, UniProt P00782)", "T4 construct": "codons for the mature subtilisin corresponding to that secreted by the B. amyloliquefaciens; made in house; host or cells: B. subtilis BG2036 (transformed with pS4-5)", "T4 sequence (P00782 108-382)": "as the sequence (P00782 108-382 G273N) above, with N166G counted along it", "experimental": "as §1, §2"}, "[5]": {"biological_target": "T5, B. amyloliquefaciens subtilisin variant ala+166 (A166; glycine+166 to ala) (Bacillus amyloliquefaciens, UniProt P00782, G273A)", "T5 construct": "codons for the mature subtilisin corresponding to that secreted by the B. amyloliquefaciens; made in house; host or cells: B. subtilis BG2036", "T5 sequence (P00782 108-382 G273A)": "as the sequence (P00782 108-382 G273N) above, with N166A counted along it", "experimental": "as §1, §2"}, "[6]": {"biological_target": "T6, B. amyloliquefaciens subtilisin variant arg+166 (glycine+166 to arg) (Bacillus amyloliquefaciens, UniProt P00782, G273R)", "T6 construct": "codons for the mature subtilisin corresponding to that secreted by the B. amyloliquefaciens; made in house; host or cells: B. subtilis BG2036", "T6 sequence (P00782 108-382 G273R)": "as the sequence (P00782 108-382 G273N) above, with N166R counted along it", "experimental": "as §1, §2"}, "[7]": {"biological_target": "T7, B. amyloliquefaciens subtilisin variant hys+166 (glycine+166 to his) (Bacillus amyloliquefaciens, UniProt P00782, G273H)", "T7 construct": "codons for the mature subtilisin corresponding to that secreted by the B. amyloliquefaciens; made in house; host or cells: B. subtilis BG2036", "T7 sequence (P00782 108-382 G273H)": "as the sequence (P00782 108-382 G273N) above, with N166H counted along it", "experimental": "as §1, §2"}, "[8]": {"biological_target": "T8, B. amyloliquefaciens subtilisin variant lys+166 (glycine+166 to lys) (Bacillus amyloliquefaciens, UniProt P00782, G273K)", "T8 construct": "codons for the mature subtilisin corresponding to that secreted by the B. amyloliquefaciens; made in house; host or cells: B. subtilis BG2036", "T8 sequence (P00782 108-382 G273K)": "as the sequence (P00782 108-382 G273N) above, with N166K counted along it", "experimental": "as §1, §2"}, "[9]": {"biological_target": "T9, B. amyloliquefaciens subtilisin variant phe+166 (glycine+166 to phe) (Bacillus amyloliquefaciens, UniProt P00782, G273F)", "T9 construct": "codons for the mature subtilisin corresponding to that secreted by the B. amyloliquefaciens; made in house; host or cells: B. subtilis BG2036", "T9 sequence (P00782 108-382 G273F)": "as the sequence (P00782 108-382 G273N) above, with N166F counted along it", "experimental": "as §1, §2"}}, "note": "*1 amine or outer side, *2 acyl side, *3 side chain or, on linkers, in order; H or OH if unused. Where a SMILES comes first, the peptide text is derived from it. The star is where a group is joined. pNA = O=[N+]([O-])c1ccc(N*)cc1; Suc = O=C(CCC(=O)[*:2])[*:1]; Bz = O=C(c1ccccc1)*"}
{"smiles": "CC(C)[C@H](NC(=O)c1ccccc1)C(=O)NCC(=O)N[C@@H](CCCNC(=N)N)C(=O)Nc1ccc([N+](=O)[O-])cc1", "note": "[BVGRpN, benzoyl-L-Valyl-Glycyl-L-Arginyl-p-nitroanilide] (Bz-Val-Gly-Arg-pNA)", "values": [{"measurement": "Km", "setting": "[1]", "value": 120, "unit": "µM"}, {"measurement": "Kcat", "setting": "[2]", "value": 2, "unit": "s⁻¹"}, {"measurement": "Km", "setting": "[2]", "value": 41, "unit": "µM"}, {"measurement": "Kcat", "setting": "[3]", "value": 2, "unit": "s⁻¹"}, {"measurement": "Km", "setting": "[3]", "value": 27, "unit": "µM"}, {"measurement": "Km", "setting": "[4]", "value": 1100, "unit": "µM"}]}
{"smiles": "C[C@H](NC(=O)CCC(=O)O)C(=O)N[C@@H](C)C(=O)N1CCC[C@H]1C(=O)N[C@@H](Cc1ccccc1)C(=O)Nc1ccc([N+](=O)[O-])cc1", "note": "[sAAPFpN, succinyl-L-Alanyl-L-Alanyl-L-Prolyl-L-Phenylalanyl-p-nitro-anilide] (Suc-AAPF-pNA)", "values": [{"measurement": "Km", "setting": "[5]", "value": 27, "unit": "µM"}, {"measurement": "Km", "setting": "[6]", "value": 62, "unit": "µM"}, {"measurement": "Km", "setting": "[1]", "value": 140, "unit": "µM"}, {"measurement": "Km", "setting": "[2]", "value": 580, "unit": "µM"}, {"measurement": "Km", "setting": "[3]", "value": 340, "unit": "µM"}, {"measurement": "Km", "setting": "[7]", "value": 110, "unit": "µM"}, {"measurement": "Km", "setting": "[8]", "value": 34, "unit": "µM"}, {"measurement": "Kcat", "setting": "[9]", "value": 3, "unit": "s⁻¹"}, {"measurement": "Km", "setting": "[9]", "value": 14, "unit": "µM"}, {"measurement": "Km", "setting": "[4]", "value": 140, "unit": "µM"}]}
